Measurements: PMC6135860 (Neuropsychopharmacology, 2018)
Where two headings read alike, the source gives them in different places.

Legend:
[1] = biological target: PDE4 binding sites in wild-type mouse brain membranes; assay: [3H]-rolipram radioligand binding to brain membranes; conditions: wild-type
Description: Mice were killed by decapitation, and the brains were immediately dissected on ice and homogenized in binding buffer using a Polytron homogenizer (Brinkman Instruments, Westbury, NY). The membrane fraction of the homogenate was obtained by centrifugation at 15,000 × g for 15 min, and resuspension of the pellet in the binding buffer.
Mice were killed by decapitation, and the brains were immediately dissected on ice and homogenized in binding buffer (50 mM Tris-HCl, 5 mM MgCl2, pH 7.5) using a Polytron homogenizer (Brinkman Instruments, Westbury, NY). The membrane fraction of the homogenate was obtained by centrifugation at 15,000 g for 15 min, and resuspension of the pellet in the binding buffer^29.
At the end of the incubation, reactions were stopped by adding 5 ml of the ice-cold binding buffer and rapid vacuum filtration through glass fiber filters that had been soaked in 0.3% polyethyleneimine. The filters were then washed twice with 5 ml of the ice-cold binding buffer, and discs of filter paper were collected for measurement of radioactivity by liquid scintillation counting.

humanized PDE4D mice [2] = assay: Novel object recognition, 24 h inter-trial interval; assay type: in vivo, mouse
Description: The novel object recognition test was performed as described elsewhere [32, 33]. Briefly, the task procedure consists of three phases: habituation phase on day 1 for 10 min, training (T1) phase on day 2 for 5 min, and testing (T2) phase on day 3 for 5 min. The duration each animal spent exploring the objects was recorded. Time spent exploring the identical objects in T1 was recorded as a1 and a2; time spent exploring the familiar and the novel objects in T2 was recorded as “a” and “b”, respectively. The following variables were calculated: e1 = a1 + a2, e2 = a + b, the relative discrimination index d2 = (b–a)/e2.
Novel object recognition. Mice were handled for 3-5 min for 5 days in a row. The novel object recognition test was performed in a Plexiglas open field box (L30 cm, W50 cm, H40 cm) as described elsewhere^64,65. Briefly, the task procedure consists of three phases: habituation, training (T1), and testing (T2). In the habituation phase (day 1), each animal is allowed to freely explore the apparatus for 10 min; then the animal is returned to its home cage. During the training phase (day 2), a single animal is placed in the center of the open field containing two identical objects located on the diagonal of the field, and allowed to explore for 5 min. After a retention interval after T1 of 24 h (long-term recall) or 1 h (scopolamine-impairment model), the animal was subjected to the T2 testing phase for 5 min, during which one familiar object and one novel object were presented. The arena and objects were thoroughly wiped with 70% ethanol after each trial to avoid the presence of any olfactory cues. The animals were considered to be exploring the object when directing their nose to the object at a distance of no more than 2 cm and/or touching or sniffing the object. The duration each animal spent exploring the objects was recorded. Time spent exploring the identical objects in T1 was recorded as a1 and a2; time spent exploring the familiar and the novel objects in T2 was recorded as ‘a’ and ‘b’, respectively. The following variables were calculated: e1 = a1 + a2, e2 = a + b, the relative discrimination index d2 = (b – a)/e2.

ICR mice [3] = assay: Antidepressant-like effect models (tail suspension, forced swim); assay type: in vivo, mouse; conditions: Supplementary Figure S3
Source text: Data are presented as mean ± S.E.M. (n = 10 male mice); * p < 0.05 and ** p < 0.01 (Student’s t-test) versus vehicle-treated group.

[4] = biological target: T1, mouse PDE4B3 dimer S133D(PKA) (Mus musculus, UniProt Q8VBU5, S118D); assay: PDE4 kinetic cAMP hydrolysis coupled-enzyme assay; assay type: biochemical
T1 construct: hexahistidine; Proteos Inc; host or cells: Baculovirus-infected Sf9 insect cells
T1 sequence (Q8VBU5 1-721 S118D): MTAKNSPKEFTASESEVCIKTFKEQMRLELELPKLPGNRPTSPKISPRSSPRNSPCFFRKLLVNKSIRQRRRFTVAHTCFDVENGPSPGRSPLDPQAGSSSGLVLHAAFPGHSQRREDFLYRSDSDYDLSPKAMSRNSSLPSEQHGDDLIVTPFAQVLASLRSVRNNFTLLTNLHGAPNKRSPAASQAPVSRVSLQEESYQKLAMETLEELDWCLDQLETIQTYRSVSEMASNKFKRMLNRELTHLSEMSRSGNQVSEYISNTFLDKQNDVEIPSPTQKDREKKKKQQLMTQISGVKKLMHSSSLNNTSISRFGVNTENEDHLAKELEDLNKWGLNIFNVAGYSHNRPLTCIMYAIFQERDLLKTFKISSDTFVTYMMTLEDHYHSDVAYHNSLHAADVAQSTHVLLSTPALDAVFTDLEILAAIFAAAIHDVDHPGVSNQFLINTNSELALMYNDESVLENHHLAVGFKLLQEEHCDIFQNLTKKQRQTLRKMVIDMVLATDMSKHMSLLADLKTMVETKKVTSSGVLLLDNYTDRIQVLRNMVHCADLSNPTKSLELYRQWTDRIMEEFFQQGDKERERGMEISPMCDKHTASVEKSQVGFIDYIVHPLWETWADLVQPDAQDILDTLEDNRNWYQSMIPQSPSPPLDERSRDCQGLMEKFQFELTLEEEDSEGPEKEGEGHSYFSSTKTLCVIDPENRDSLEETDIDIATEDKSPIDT
Description: Kinetic assay of cAMP hydrolysis by purified PDE4 enzymes is measured by coupling the formation of the PDE4 reaction product 5′-adenosine monophosphate (AMP) to the oxidation of reduced nicotinamide adenine dinucleotide (NADH). This is accomplished with three coupling enzymes (yeast myokinase, pyruvate kinase, and lactate dehydrogenase), and allows fluorescent determination of reaction rates [19]. To measure inhibition of PDE4 enzymes by test compounds, data were percent normalized relative to controls and are presented as percent inhibition.
Kinetic assay of cAMP hydrolysis by purified PDE4 enzymes is measured by coupling the formation of the PDE4 reaction product 5′-adenosine monophosphate (AMP) to the oxidation of reduced nicotinamide adenine dinucleotide (NADH). This is accomplished with three coupling enzymes (yeast myokinase, pyruvate kinase, and lactate dehydrogenase), and allows fluorescent determination of reaction rates.^19 Assays were performed in 96-well plates in a total volume of 200 μl/well. Compounds were dissolved in dimethylsulfoxide (DMSO) and added to plates in a volume of 10 μl followed by addition of 165 μl of assay mix. Plates were pre-incubated at 25 °C for 10 min. The enzyme reaction was initiated by the addition of 25 μl of cAMP followed by thorough mixing. […] Initial rates (slopes) were determined from linear portions of the progress curves. […]

[5] = tested on: brain cAMP, humanized PDE4D mice; assay: Brain cAMP ELISA after oral dosing; assay type: in vivo, mouse
Description: (§1) On the day of assay, frozen brain samples were analyzed using the cAMP complete ELISA kit (Enzo Life Sciences, Farmingdale, NY) according to the assay protocol.
(§2) Concentrations of cAMP in mouse brain samples were measured using an enzyme-linked immunosorbent assay (ELISA). The mice were treated with various doses of BPN-14770 or vehicle. 1 h after dosing, mice were killed by rapid decapitation, and brains were immediately were dissected on ice, flash frozen in liquid nitrogen, and stored at -80 ̊C. On the day of assay, brain samples (one hemisphere) were ground to a fine powder under liquid nitrogen in a stainless steel mortar, followed by addition of 10 volumes of 0.1 M HCl. Tissue homogenates were then centrifuged at 800ˣg for 15 min. Supernatants were collected for immediate assay or stored frozen for assay later using the cAMP complete ELISA kit (Enzo Life Sciences, Farmingdale, NY) according to the assay protocol ^66.

[6] = tested on: brain cAMP, wild-type mice; assay: Brain cAMP ELISA after oral dosing; assay type: in vivo, mouse
Description: as §1, §2

[7] = Pharmacokinetics and plasma exposure in mice
humanized PDE4D mice [8] = tested on: humanized PDE4D mice
humanized PDE4D mice [9] = assay: Scopolamine-induced memory impairment in novel object recognition, 1 h inter-trial interval; assay type: in vivo, mouse
Description: The novel object recognition test was performed as described elsewhere. […] The duration each animal spent exploring the objects was recorded. Time spent exploring the identical objects in T1 was recorded as a1 and a2; time spent exploring the familiar and the novel objects in T2 was recorded as “a” and “b”, respectively. The following variables were calculated: e1 = a1 + a2, e2 = a + b, the relative discrimination index d2 = (b–a)/e2.
For the scopolamine-induced memory impairment models, a single dose of scopolamine (0.1 mg/kg, IP) was administered 30 min before the training session of the NOR. Animals treated with H-89 or vehicle were implanted with 26-gauge guide cannula unilaterally (AP −0.2 mm from Bregma, ML +1 mm from the midline, DV−2mm from skull surface) and rested for a week before any tests.
Novel object recognition. Mice were handled for 3-5 min for 5 days in a row. The novel object recognition test was performed in a Plexiglas open field box (L30 cm, W50 cm, H40 cm) as described elsewhere^64,65. Briefly, the task procedure consists of three phases: habituation, training (T1), and testing (T2). In the habituation phase (day 1), each animal is allowed to freely explore the apparatus for 10 min; then the animal is returned to its home cage. During the training phase (day 2), a single animal is placed in the center of the open field containing two identical objects located on the diagonal of the field, and allowed to explore for 5 min. After a retention interval after T1 of 24 h (long-term recall) or 1 h (scopolamine-impairment model), the animal was subjected to the T2 testing phase for 5 min, during which one familiar object and one novel object were presented. […] The duration each animal spent exploring the objects was recorded. Time spent exploring the identical objects in T1 was recorded as a1 and a2; time spent exploring the familiar and the novel objects in T2 was recorded as ‘a’ and ‘b’, respectively. The following variables were calculated: e1 = a1 + a2, e2 = a + b, the relative discrimination index d2 = (b – a)/e2.

ICR mice [10] = assay: Anxiolytic-like effect models (marble burying, elevated-plus maze); assay type: in vivo, mouse; conditions: Supplementary Figure S4
Source text: Data are presented as mean ± S.E.M. (n = 10 male mice); * p < 0.05 and *** p < 0.001 (Student’s t-test) versus vehicle-treated group.

Work on O=C(O)Cc1ccc(Cc2cc(-c3cccc(Cl)c3)nc(C(F)(F)F)c2)cc1 [BPN14770] yielded a Ki ([1]; inhibition of 2 nM [3H]-rolipram binding, read-out: One-site Ki) of 124 ± 14.1 nM, a Ki ([1]; inhibition of [3H]-rolipram binding, read-out: Two-site Ki1) of 79.7 ± 17.1 nM and a Ki ([1]; inhibition of [3H]-rolipram binding, read-out: Two-site Ki2) of 622 ± 110 nM. The “dose range for effect on neurochemical and cognitive biomarkers” value (humanized PDE4D mice [2]; humanized PDE4D mice) was 0.01–0.03 mg/kg PO, the “greater potency for improving memory in humanized vs wild-type mice” value (humanized PDE4D mice [2]; memory tests overall) was 100 fold and the antidepressant-like effect (ICR mice [3]) was “ineffective”. The IC50 [4] was 2120 ± 527 nM, the “increase in brain cAMP” value ([5]; humanized PDE4D mice, 0.3 mg/kg PO) was “almost three-fold” and the “minimum effective dose (MED) for increase in brain cAMP” value ([5]; humanized mice, 1 h after oral dose) was 0.1 mg/kg PO. For the same compound, the “effect on brain cAMP” value ([6]; 0.3 mg/kg PO) was “ineffective”, the “minimum effective dose (MED) for increase in brain cAMP” value ([6]; 1 h after oral dose) was 1 mg/kg PO and the “plasma exposure at the NOAEL” value ([7]; 1 mg/kg PO, 1 h post dose, data not shown) was 1305 ± 113 ng/mL. It also gave a Kp ([7]; C57bl/6, mouse, brain and plasma) of 0.4 to 0.42, a bioavailability ([7]; C57bl/6, mouse, in vivo, po) of 70 to 80% and a half-life ([7]; C57bl/6, mouse, plasma and brain) of 8 to 10 h. The “projected tolerability in non-rodent species, plasma” value (humanized PDE4D mice [8]; from surrogate measure of emesis) was “greater than 1300 ng/ml”, the “window in exposure between beneficial doses and plasma exposure predicted to cause emesis” value (humanized PDE4D mice [8]; humanized PDE4D mice) was 40- to 100 fold and the “NOAEL (no observed adverse effect level), ketamine/xylazine test” value (humanized PDE4D mice [8]; mouse, in vivo) was 1 mg/kg PO. The “MED for reversal of scopolamine memory deficit” value (humanized PDE4D mice [9]; acute administration 30 min prior to scopolamine, NOR 1 h inter-trial interval) was 0.03 mg/kg, the “memory benefit in the scopolamine impairment model with repeated dosing” value (humanized PDE4D mice [9]; repeated treatment for 14 days) was “maintained with repeated dosing” and the anxiolytic-like effect (ICR mice [10]) was “ineffective”.
